Measured values published in patent US20230129485A1, “SYSTEM AND METHOD FOR DETERMINING MATERIAL PROPERTIES OF MOLECULAR SYSTEMS FROM AN AB-INITIO PARAMETERIZED FORCE-FIELD” (InterX, Inc., priority 2021, published 2023).
Like-named read-outs stand apart in the source and are kept apart here.

Key:
[1] = Free energy of hydration predicted with the QM-parameterized force field model (ARROW FF), classical MD and PIMD simulation in a water box; conditions: for water Arrow MD Error / water Arrow PIMD8 Error: Table 3; for water Arrow MD Error: absolute error of MD hydration free energy vs experiment; for water Arrow PIMD8 Error: absolute error of PIMD8 hydration free energy vs experiment; for Arrow PIMD8 Error: absolute error vs Exp (hydration)
From the text: For example, the example QM-parameterized force-field molecular simulation process 400 can use Bennett Acceptance Ratio (BAR) to compute the free energy of hydration/solvation of the molecule in water or any other solvent. In some implementations, the analysis of the molecular dynamics simulations includes analysis, predication, and visualization of ensemble properties of atoms/molecules from atomic and molecular trajectories using the optimized parameters of the QM-parameterized force field model (i.e., the quantum mechanics rule-based reasoning technique) and the QM-parameterized force field model.
In some simulations of the QM-parameterized force field molecular simulation process, the molecules were placed in a water or cyclohexane box of size 32×32×32 Å3. Particle-Mesh Ewald (PME) algorithm was used to compute the electrostatic interactions. A 32×32×32 grid mesh and 5th power spline interpolation order can be used to compute the inverse PME sum. 9 Å cutoffs were used to compute the direct PME sum as well as the exchange and dispersion interactions. Bulk corrections were applied to account for distance cut-off of dispersion interactions. Solvation free energies were computed by decoupling the interactions between the solute and the solvent molecules. Electrostatic, exchange-repulsion and dispersion interactions were switched off simultaneously using a lambda-dependent scaling (a scaling factor power=2 was used) and a soft-coring algorithm (maximal soft-coring radius=1.5 Å, soft-coring radius scaling factor power=1). 15 lambda points unequally spaced (X=0, 0.05, 0.1, 0.2, 0.3, 0.4, 0.5, 0.6, 0.7, 0.75, 0.8, 0.85, 0.9, 0.95, 1.0) were used to decouple the solute-solvent intermolecular interactions.
In some simulations of the QM-parameterized force field molecular simulation process, energy minimization (10,000 steps) using the steepest descent algorithm was initially performed on all the simulation systems. This was followed by a 50 ps equilibration and 1 ns production runs in the isothermal-isobaric ensemble (NPT). […] Pressure was maintained at 1 atm using a MTTK barostat (relaxation time=5 ps). A Multiple Time Step (MTS) algorithm was used to integrate the equations of motion both for the classical and path-integral runs. […] The calculations were performed using the QM-parameterized force field model.
Using the QM-parameterized force field model, the QM-parameterized force field device can compute or predict the solvation free energies using both the Bennett acceptance ratio (BAR) and thermodynamic integration (TI) method with <dH/dλ> values interpolated by cubic splines. […] FIG. 7A illustrates a <dH/dλ> dependence for desolvation of Anthracene in water. FIG. 7B illustrates accumulated statistical errors for TI calculations of AG desolvation of Anthracene in water.

[2] = CHEX/H2O partition coefficient (log D) predicted with the QM-parameterized force field model (ARROW FF)
From the text: In some simulations, the example QM-parameterized force-field molecular simulation process includes using the functional form of the bonded interactions, with force constants and equilibrium values fitted to QM energies at the MP2/aug-cc-pVTZ level of theory. In some simulations, solvents of water and cyclohexane are selected. Cyclohexane (CHEX) is nonpolar and equilibrates relatively quickly. Reliable experimental data for both CHEX solvation free energies, as well as for the CHEX/H2O partition coefficients are used in these simulations.
In some example simulations, solutes containing neutral chemical functional groups, for example carboxylic acids, alkanes, alkenes, aromatics, aldehydes, ketones, alcohols, amides, esters, thiols, sulfides, disulfides and heterocycles, are used. The simulations were performed independently by four groups using their own respective computational resources and architectures, and then averaged. FIGS. 9A-9C show solvation and hydration free energies predictions of various solutes, using the QM-parameterized force field model, in some embodiments.
The straight line is a line of agreement between experimental and simulated/predicted values, and the gray bar is the range or chemical accuracy. […] The molecules here are a subset of those in a) because only those with experimental values for CHEX solvation can be included.

[3] = Free energy of hydration by COSMO implicit solvent model (MolPro ver. 2012); conditions: absolute error vs Exp (hydration)
Protocol: (§1) Due to unavailability of free energy data for the original COSMO model, the free energies of solvation for the molecule dataset are calculated using MolPro ver. […] The comparisons to other implicit solvent models such as SMD, PCM and COSMO-RS are limited to the overlap of the molecules computed using QM-parameterized force field model. The free energies of hydration as predicted by these implicit solvent models (SMD, PCM) were received.

[4] = Free energy of hydration by Solvation Model Dielectric (SMD) implicit solvent model; conditions: absolute error vs Exp (hydration)
Protocol: as §1

[5] = Free energy of hydration by Polarizable Continuum Model (PCM); conditions: absolute error vs Exp (hydration)
Protocol: as §1

[6] = Free energy of hydration by COSMO-RS
Protocol: as §1

[7] = Table 3; free energy of solvation in cyclohexane, experimental; cited from earlier work
[8] = Table 3; CHEX/H2O partition coefficient, experimental; cited from earlier work
[9] = Table 3; free energy of hydration, experimental; cited from earlier work
[10] = implicit solvent model, values received; cited from earlier work
[11] = implicit solvent model, values received; cited from earlier work; remark: listed apart in the source
[12] = Table 3, absolute error of MD log D vs experiment
[13] = Table 3, absolute error of PIMD log D vs experiment

Row | Structure (SMILES) | water Arrow MD Error [1] [kcal/mol] | water Arrow PIMD8 Error [1] [kcal/mol] | Arrow PIMD8 Error [1] [kcal/mol] | log D Arrow MD Error [2, 12] | log D Arrow PIMD Error [2, 13] | COSMO/Molpro Error [3] [kcal/mol] | SMD Error [4] [kcal/mol] | PCM Error [5] [kcal/mol] | COSMO-RS error [6] [kcal/mol] | CHEX Exp (solvation) [7] [kcal/mol] | Exp (log D) [8] | water Exp (hydration) [9] [kcal/mol] | SMD free energy of hydration [10] [kcal/mol] | PCM free energy of hydration [11] [kcal/mol] | log D Arrow MD Error [2] | log D Arrow PIMD Error [2]
1 | CCC(C)=O [2-Butanone] | 0.43 | 0.16 | 0.16 | 0.11 | 0.21 | 4.15 | 0.09 | 0.19 | 0.17 | -3.47 | −0.18 | – | – | – | – | –
2 | C=CC=C [Buta-13-diene] | 0.31 | 0.35 | 0.35 | – | – | 3.28 | 0.29 | 1.91 | 0.47 | – | – | 0.61 | 0.90 | -1.30 | – | –
3 | C=C [Ethene] | 0.29 | 0.19 | 0.19 | – | – | 2.95 | 0.12 | 2.08 | 0.55 | – | – | 1.28 | 1.40 | -0.80 | – | –
4 | CCCCCC [Hexane] | 0.94 | 0.06 | 0.06 | – | – | 3.37 | 0.11 | 2.71 | 0.06 | – | – | 2.51 | 2.40 | -0.20 | – | –
5 | c1ccc2ccccc2c1 [Napthalene] | 0.74 | 0.24 | 0.24 | 0.19 | 0.01 | 2.11 | 0.90 | 0.10 | 0.23 | -7.17 | 3.50 | -2.40 | -1.50 | -2.30 | – | –
6 | CCCCC [Pentane] | – | – | – | – | – | – | – | – | – | – | 4.28 | – | – | – | 0.39 | 0.17
7 | CCCS [Propanethiol] | 0.81 | 0.40 | 0.40 | 0.38 | 0.36 | 2.88 | 0.15 | 1.15 | – | -3.12 | 1.52 | -1.05 | -0.90 | -2.20 | – | –
8 | C=CC [Propene] | 0.48 | 0.05 | 0.05 | – | – | 3.00 | 0.12 | 2.12 | 0.32 | – | – | 1.32 | 1.20 | -0.80 | – | –
9 | CCCC(=O)O [butyricacid] | 0.25 | 0.40 | 0.40 | – | – | 2.19 | 0.95 | 2.05 | 0.11 | – | – | -6.35 | -5.40 | -4.30 | – | –
10 | CCCC=O [buytyraldehyde] | 0.61 | 0.07 | 0.07 | – | – | 4.47 | 0.18 | 0.52 | 0.07 | – | – | -3.18 | -3.00 | -3.70 | – | –
11 | C=CCCC [pent-1-ene] | 0.59 | 0.25 | 0.25 | – | – | 3.57 | 0.28 | 2.48 | 0.56 | – | – | 1.68 | 1.40 | -0.80 | – | –
